Experimental data taken from ChEMBL document CHEMBL4837206, “Synthesis and biological evaluation of novel isoxazole-piperazine hybrids as potential anti-cancer agents with inhibitory effect on liver cancer stem cells” (Eur J Med Chem, 2021).
Calls of active or inactive are those of the source. No cut-off for these calls is given here.

Tests used:
[1] = test system: Mahlavu; experiment: Induction of apoptosis in human Mahlavu cells at 5 uM measured after 72 hrs by Annexin V-FITC/propidium iodide staining based flow cytometric analysis; format: functional, cell-based
[2] = test system: HepG2; experiment: Induction of apoptosis in human HepG2 cells assessed as nuclear fragmentation measured after 48 hrs by Hoechst33258 staining based inverted fluorescent microscopic method; format: functional, cell-based
[3] = test system: Huh-7; experiment: Induction of apoptosis in human Huh-7 cells assessed as nuclear fragmentation measured after 48 hrs by Hoechst33258 staining based inverted fluorescent microscopic method; format: functional, cell-based
[4] = test system: HepG2; experiment: Antiproliferative activity against human HepG2 cells assessed as reduction in cell viability measured for 180 hrs by RT-CES analysis; format: functional, cell-based; conditions: dose 2.5-10 µM
[5] = test system: Huh-7; experiment: Induction of apoptosis in human Huh-7 cells assessed as chromatin condensation measured after 48 hrs by Hoechst33258 staining based inverted fluorescent microscopic method; format: functional, cell-based
[6] = test system: MCF7; experiment: Antiproliferative activity against human MCF7 cells assessed as reduction in cell viability measured after 72 hrs by SRB assay; format: functional, cell-based; conditions: MCF7, 72 h
[7] = test system: Huh-7; experiment: Induction of apoptosis in human Huh-7 cells assessed as apoptotic body formation measured after 48 hrs by Hoechst33258 staining based inverted fluorescent microscopic method; format: functional, cell-based
[8] = test system: Mahlavu; experiment: Antiproliferative activity against human Mahlavu cells assessed as reduction in cell viability measured after 72 hrs by SRB assay; format: functional, cell-based
[9] = Inhibition of PI3K/Akt/mTOR signaling in human Mahlavu cells assessed as downregulation of c-Myc protein expression at 5 uM measured after 72 hrs by Western blot analysis; format: cell-based
[10] = test system: HepG2; experiment: Induction of apoptosis in human HepG2 cells assessed as apoptotic body formation measured after 48 hrs by Hoechst33258 staining based inverted fluorescent microscopic method; format: functional, cell-based
[11] = test system: SNU-475; experiment: Antiproliferative activity against human SNU-475 cells assessed as reduction in cell viability measured after 40 to 130 hrs by RT-CES analysis; format: functional, cell-based; conditions: time 40-130 hrs
[12] = biological target: T1, Mitogen-activated protein kinase; ERK1/ERK2 (Homo sapiens) (UniProt P27361+P28482); experiment: Downregulation of ERK1/2 phosphorylation at T202/Y204 residue in human Huh-7 cells at 5 uM measured after 72 hrs by Western blot analysis; format: cell-based
T1 sequence (P27361 whole entry, looked up): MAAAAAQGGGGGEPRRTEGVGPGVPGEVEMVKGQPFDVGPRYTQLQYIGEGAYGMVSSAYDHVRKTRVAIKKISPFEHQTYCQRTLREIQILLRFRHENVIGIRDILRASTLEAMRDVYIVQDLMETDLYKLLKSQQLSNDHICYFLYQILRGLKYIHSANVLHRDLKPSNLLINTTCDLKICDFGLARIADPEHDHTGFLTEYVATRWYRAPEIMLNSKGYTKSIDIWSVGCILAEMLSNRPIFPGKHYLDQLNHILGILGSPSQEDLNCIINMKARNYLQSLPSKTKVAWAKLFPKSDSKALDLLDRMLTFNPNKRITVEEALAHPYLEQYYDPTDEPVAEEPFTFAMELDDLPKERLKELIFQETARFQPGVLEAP
T1 sequence (P28482 whole entry, looked up): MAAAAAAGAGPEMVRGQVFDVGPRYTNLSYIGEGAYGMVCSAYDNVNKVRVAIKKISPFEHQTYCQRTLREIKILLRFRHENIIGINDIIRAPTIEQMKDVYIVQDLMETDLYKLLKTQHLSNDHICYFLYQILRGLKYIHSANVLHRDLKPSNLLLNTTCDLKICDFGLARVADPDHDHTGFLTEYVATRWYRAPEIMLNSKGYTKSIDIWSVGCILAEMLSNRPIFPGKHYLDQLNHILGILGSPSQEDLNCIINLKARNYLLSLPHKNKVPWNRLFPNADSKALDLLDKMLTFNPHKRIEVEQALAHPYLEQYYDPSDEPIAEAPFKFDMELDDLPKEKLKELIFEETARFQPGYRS

[13] = test system: Huh-7; experiment: Inhibition of cell stemness in human Huh-7 cells assessed as decrease in OCT4 mRNA level at 10 uM measured after 72 hrs by RT-qPCR analysis; format: functional, cell-based
[14] = test system: SNU-475; experiment: Activation of p53 harboring A239G/T275C/A288G mutant in human SNU-475 cells assessed as upregulation of p53 phosphorylation at Ser15 residue at 5 uM incubated for 72 hrs by western blot analysis; format: cell-based; conditions: filed as activator
[15] = biological target: Serine/threonine-protein kinase AKT (Homo sapiens) (UniProt P31751+Q9Y243+P31749); experiment: Inhibition of Akt phosphorylation at Ser473 residue in human HepG2 cells at 5 uM measured after 72 hrs by Western blot analysis; format: cell-based
Serine/threonine-protein kinase AKT (Homo sapiens), sequence (P31749 whole entry, looked up): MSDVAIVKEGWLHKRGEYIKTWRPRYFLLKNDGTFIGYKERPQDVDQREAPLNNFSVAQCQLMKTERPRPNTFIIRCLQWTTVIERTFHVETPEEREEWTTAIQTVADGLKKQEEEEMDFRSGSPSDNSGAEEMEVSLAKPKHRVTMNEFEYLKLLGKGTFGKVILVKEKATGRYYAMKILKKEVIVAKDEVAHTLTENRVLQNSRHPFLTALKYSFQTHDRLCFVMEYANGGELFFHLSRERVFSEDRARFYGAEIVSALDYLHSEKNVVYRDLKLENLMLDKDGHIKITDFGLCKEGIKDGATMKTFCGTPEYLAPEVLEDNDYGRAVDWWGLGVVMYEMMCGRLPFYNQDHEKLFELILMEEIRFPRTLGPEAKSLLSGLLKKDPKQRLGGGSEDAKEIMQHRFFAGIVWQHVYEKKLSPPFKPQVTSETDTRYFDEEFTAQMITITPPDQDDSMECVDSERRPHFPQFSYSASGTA
Serine/threonine-protein kinase AKT (Homo sapiens), sequence (P31751 whole entry, looked up): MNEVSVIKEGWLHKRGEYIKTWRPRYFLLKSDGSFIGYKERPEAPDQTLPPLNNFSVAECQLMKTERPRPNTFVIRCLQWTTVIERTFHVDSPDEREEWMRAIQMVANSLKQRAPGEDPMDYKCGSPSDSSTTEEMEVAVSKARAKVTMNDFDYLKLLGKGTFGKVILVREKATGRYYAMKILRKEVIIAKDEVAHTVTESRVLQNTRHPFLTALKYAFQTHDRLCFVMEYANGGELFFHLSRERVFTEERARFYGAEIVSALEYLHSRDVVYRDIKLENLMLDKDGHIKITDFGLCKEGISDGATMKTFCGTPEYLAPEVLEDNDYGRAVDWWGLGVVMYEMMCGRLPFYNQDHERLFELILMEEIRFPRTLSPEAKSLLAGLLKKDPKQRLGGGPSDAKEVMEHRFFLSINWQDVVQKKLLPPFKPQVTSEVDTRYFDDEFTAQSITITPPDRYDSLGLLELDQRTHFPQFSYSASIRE
Serine/threonine-protein kinase AKT (Homo sapiens), sequence (Q9Y243 whole entry, looked up): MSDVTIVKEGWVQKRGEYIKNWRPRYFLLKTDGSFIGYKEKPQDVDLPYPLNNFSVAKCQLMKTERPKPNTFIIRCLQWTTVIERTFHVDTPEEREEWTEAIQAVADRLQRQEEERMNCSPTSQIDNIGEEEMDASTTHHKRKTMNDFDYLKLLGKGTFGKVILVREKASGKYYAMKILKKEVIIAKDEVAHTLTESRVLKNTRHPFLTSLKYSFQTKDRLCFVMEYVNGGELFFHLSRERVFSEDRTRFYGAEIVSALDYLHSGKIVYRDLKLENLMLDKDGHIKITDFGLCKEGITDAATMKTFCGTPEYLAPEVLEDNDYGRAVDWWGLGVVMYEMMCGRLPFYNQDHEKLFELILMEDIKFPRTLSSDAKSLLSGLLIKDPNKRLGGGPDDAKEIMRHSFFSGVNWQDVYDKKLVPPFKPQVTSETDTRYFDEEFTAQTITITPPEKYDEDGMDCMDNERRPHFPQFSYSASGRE

[16] = test system: SNU-475; experiment: Cell cycle arrest in human SNU-475 cells assessed as increase in accumulation of cells at G2/M phase at 5 uM measured after 48 hrs by propidium iodide staining based flow cytometric analysis; format: functional
[17] = test system: Huh-7; experiment: Inhibition of cell stemness in human Huh-7 cells assessed as reduction in tumor spheres count at 10 uM incubated for 72 hrs followed by incubation in sphere formation medium for 14 days by microscopic analysis; format: functional, cell-based; conditions: time 17.0 day
[18] = test system: Huh-7; experiment: Induction of apoptosis in human Huh-7 cells at 5 uM measured after 72 hrs by Annexin V-FITC/propidium iodide staining based flow cytometric analysis; format: functional, cell-based
[19] = test system: Huh-7; experiment: Inhibition of cell stemness in human Huh-7 cells assessed as decrease in OCT4 level at 10 uM measured after 72 hrs by flow cytometry analysis; format: functional, cell-based
[20] = test system: HepG2; experiment: Antiproliferative activity against human HepG2 cells assessed as reduction in cell viability measured after 90 hrs by RT-CES analysis; format: functional, cell-based
[21] = test system: Mahlavu; experiment: Cell cycle arrest in human Mahlavu cells assessed as increase in accumulation of cells at G0/G1 phase at 5 uM measured after 48 hrs by propidium iodide staining based flow cytometric analysis; format: functional
[22] = test system: HepG2; experiment: Cell cycle arrest in human HepG2 cells assessed as increase in accumulation of cells at G0/G1 phase at 5 uM measured after 48 hrs by propidium iodide staining based flow cytometric analysis; format: functional
[23] = biological target: T1, Mitogen-activated protein kinase; ERK1/ERK2 (Homo sapiens); experiment: Downregulation of ERK1/2 phosphorylation at T202/Y204 residue in human HepG2 cells at 5 uM measured after 72 hrs by Western blot analysis; format: cell-based
[24] = biological target: T1, Mitogen-activated protein kinase; ERK1/ERK2 (Homo sapiens); experiment: Inhibition of ERK1/2 phosphorylation at T202/Y204 residue in human Mahlavu cells at 5 uM measured after 72 hrs by Western blot analysis; format: cell-based
[25] = test system: Mahlavu; experiment: Induction of apoptosis in human Mahlavu cells assessed as chromatin condensation measured after 48 hrs by Hoechst33258 staining based inverted fluorescent microscopic method; format: functional, cell-based
[26] = test system: Huh-7; experiment: Inhibition of cell stemness in human Huh-7 cells assessed as reduction in size of tumor spheres at 10 uM incubated for 72 hrs followed by incubation in sphere formation medium for 14 days by microscopic analysis; format: functional, cell-based; conditions: time 17.0 day
[27] = test system: Mahlavu; experiment: Inhibition of cell stemness in human Mahlavu cells assessed as decrease in NANOG level at 10 uM measured after 72 hrs by flow cytometry analysis; format: functional, cell-based
[28] = test system: Mahlavu; experiment: Activation of p53 harboring G249T mutant in human Mahlavu cells assessed as upregulation of p53 acetylation at Lys382 residue at 5 uM incubated for 72 hrs by western blot analysis; format: cell-based; conditions: filed as activator
[29] = test system: SNU-475; experiment: Activation of p53 harboring A239G/T275C/A288G mutant in human SNU-475 cells assessed as upregulation of p21 protein expression at 5 uM incubated for 72 hrs by western blot analysis; format: cell-based; conditions: filed as activator
[30] = test system: Huh-7; experiment: Inhibition of cell stemness in human Huh-7 cells assessed as CD133+/EpCAM+ expression at 10 uM measured after 72 hrs by flow cytometry analysis (reference value: 29.92%); format: functional; design: scale not given: the % may be the effect or the level left
[31] = test system: Huh-7; experiment: Cell cycle arrest in human Huh-7 cells assessed as increase in accumulation of cells at G2/M phase at 5 uM measured after 48 hrs by propidium iodide staining based flow cytometric analysis; format: functional
[32] = test system: SNU-475; experiment: Induction of apoptosis in human SNU-475 cells assessed as apoptotic body formation measured after 48 hrs by Hoechst33258 staining based inverted fluorescent microscopic method; format: functional, cell-based
[33] = test system: Huh-7; experiment: Inhibition of cell stemness in human Huh-7 cells assessed as reduction in tumor spheres count at 10 uM incubated for 72 hrs followed by incubation in sphere formation medium for 7 days by microscopic analysis; format: functional, cell-based; conditions: time 10.0 day
[34] = test system: Huh-7; experiment: Inhibition of cell stemness in human Huh-7 cells assessed as decrease in NANOG level at 10 uM measured after 72 hrs by flow cytometry analysis; format: functional, cell-based
[35] = test system: Huh-7; experiment: Inhibition of cell stemness in human Huh-7 cells assessed as decrease in NANOG mRNA level at 10 uM measured after 72 hrs by RT-qPCR analysis; format: functional, cell-based
[36] = test system: Mahlavu; experiment: Antiproliferative activity against human Mahlavu cells assessed as reduction in cell viability measured for 180 hrs by RT-CES analysis; format: functional, cell-based; conditions: dose 2.5-10 µM
[37] = test system: Mahlavu; experiment: Antiproliferative activity against human Mahlavu cells assessed as reduction in cell viability measured after 90 hrs by RT-CES analysis; format: functional, cell-based

Structure (SMILES): FC(F)(F)c1ccc(CN2CCN(Cc3cc(-c4ccc(OCc5ccccc5)cc4)on3)CC2)cc1
- Activity [1]: Active
- Activity [2]: Active
- Activity [3]: Active
- Activity [4]: Dose-Dependent Effect
- Activity [5]: Active
- IC50 [6]: 2900 nM
- Activity [7]: Active
- IC50 [8]: 11700 nM
- inhibition [9]: Active
- Activity [10]: Active
- Activity [11]: Active
- inhibition [12]: Active
- inhibition [13]: Active
- Activity [14]: Active
- inhibition [15]: inactive
- Activity [16]: Active
- inhibition [17]: Active
- Activity [18]: Active
- inhibition [19]: inactive
- Activity [20]: Active
- Activity [21]: Active
- Activity [22]: Active
- inhibition [23]: Active
- inhibition [24]: Active
- Activity [25]: Active
- inhibition [26]: Active
- inhibition [27]: Active
- Activity [28]: Active
- Activity [29]: Active
- Activity [30]: 23.68%
- Activity [31]: Active
- Activity [32]: Active
- inhibition [33]: Active
- inhibition [34]: Active
- inhibition [35]: Active
- Activity [36]: Dose-Dependent Effect
- Activity [37]: Active

Structure (SMILES): N#Cc1cccc(COc2ccc(-c3cc(CN4CCN(Cc5ccc(C(F)(F)F)cc5)CC4)no3)cc2F)c1
- Activity [1]: Active
- Activity [2]: Active
- Activity [3]: Active
- Activity [4]: Dose-Dependent Effect
- Activity [5]: Active
- IC50 [6]: 380 nM
- Activity [7]: Active
- IC50 [8]: 500 nM
- inhibition [9]: Active
- Activity [10]: Active
- Activity [11]: Active
- inhibition [12]: Active
- inhibition [13]: Active
- Activity [14]: Active
- inhibition [15]: inactive
- Activity [16]: Active
- inhibition [17]: Active
- Activity [18]: Active
- inhibition [19]: inactive
- Activity [20]: Active
- Activity [21]: Active
- Activity [22]: Active
- inhibition [23]: Active
- inhibition [24]: Active
- Activity [25]: Active
- inhibition [26]: Active
- inhibition [27]: Active
- Activity [28]: Active
- Activity [29]: Active
- Activity [30]: 13.12%
- Activity [31]: Active
- Activity [32]: Active
- inhibition [33]: Active
- inhibition [34]: Active
- inhibition [35]: Active
- Activity [36]: Dose-Dependent Effect
- Activity [37]: Active
